Active and inactive are the calls of the source. The rule behind the calls is not given here.
How the values were obtained:
[1] = test system: Plasmodium knowlesi; assay: Antimalarial activity against Plasmodium knowlesi infected Chinese rhesus macaques assessed as parasitemia level in blood smears at 40 mg/kg, intragastric treated 5 days before infection measured between day 0 to 7 by Giemsa-staining in presence of ritonavir 5 mg/kg, intragastric twice daily; assay type: functional, organism-based
[2] = test system: Plasmodium knowlesi; assay: Antimalarial activity against Plasmodium knowlesi infected Chinese rhesus macaques assessed as parasitemia level in blood smears at 40 mg/kg, intragastric treated 5 days before infection measured between day 0 to 7 by Giemsa-staining in presence of ritonavir 10 mg/kg, intragastric once daily; assay type: functional, organism-based

## CC(C)(C)NC(=O)[C@@H]1CN(Cc2cccnc2)CCN1C[C@@H](O)C[C@@H](Cc1ccccc1)C(=O)N[C@H]1c2ccccc2C[C@H]1O
[1]
  inhibition: Active

## Cc1cccc(C)c1OCC(=O)N[C@@H](Cc1ccccc1)[C@@H](O)C[C@H](Cc1ccccc1)NC(=O)[C@H](C(C)C)N1CCCNC1=O
[2]
  inhibition: inactive
